Experimental data published in patent publication US20260234566A1, “CELL LINES FOR EXPRESSION OF LHCG RECEPTOR” (Ares Trading S.A., priority 2023, published 2026).
Values joined by “and” are separate entries in the source; they are usually repeats but may differ in a detail not shown here. Equal entries are not always repeated.

Assays:
adenylate cyclase (AC) [1] = experiment: Reporter Gene Assay with forskolin stimulation, HEK 293-T WT; format: cell-based, human; details: single wells
Protocol: (§1) Second transfection efficiency evaluation. In order to assess the second transfection efficiency, a Reporter Gene Assay (RGA) was performed. […] HEK 293-T LHCGR Luciferase cells were stimulated with forskolin. As described in literature, forskolin is a diterpene able to activate the adenylate cyclase (AC) allowing the increasing of intracellular cAMP in a wide variety of cell types. Exploiting forskolin ability, the RGA assay enables the evaluation of Reporter Gene Transcription in response to cAMP accumulation without involving the LHCG receptor. The luminescence emitted after Reporter Gene Transcription, was quantified using reagents available on the market. HEK 293-T LHCGR Luciferase and HEK 293-T without transfection were seeded in a 96 well plate and stimulated with different concentration of forskolin. After incubation, the ONE-Glo EX Luciferase assay system (Promega, E8120) was added in each well and, after 10 minutes shaking, results were acquired using the plate reader.

adenylate cyclase (AC) [2] = experiment: Reporter Gene Assay with forskolin stimulation, HEK 293-T LHCGR Luciferase; format: cell-based, human; details: single wells
Protocol: as §1, with “reader. Second transfection stability. HEK 293-T LHCGR Luciferase were stimulated with forskolin 4 μM or left unstimulated. Results were reported as a fold change of treated cells over unstimulated control. All % CVs were calculated among fold changes obtained for the three banks and resulted below 25%. The mean and the SD of the 3 banks were calculated and used to generate the graphs in FIG. 4B.” for “reader.”

Structure (SMILES): C=C[C@@]1(C)CC(=O)[C@]2(O)[C@@]3(C)[C@@H](O)CCC(C)(C)[C@@H]3[C@H](O)[C@H](OC(C)=O)[C@@]2(C)O1 [Forskolin, forskolin]
- Luminescence values expressed as RLUs (adenylate cyclase (AC) [1]; forskolin 0.004 μM): 92 RLUs and 61 RLUs and 62 RLUs
- Luminescence values expressed as RLUs (adenylate cyclase (AC) [1]; forskolin 0.04 μM): 124 RLUs and 88 RLUs and 68 RLUs
- Luminescence values expressed as RLUs (adenylate cyclase (AC) [1]; forskolin 400 μM): 227 RLUs and 130 RLUs and 124 RLUs
- Luminescence values expressed as RLUs (adenylate cyclase (AC) [2]; forskolin 0.004 μM): 4221 RLUs and 4333 RLUs and 3899 RLUs
- Luminescence values expressed as RLUs (adenylate cyclase (AC) [2]; forskolin 0.04 μM): 7547 RLUs and 6804 RLUs and 7636 RLUs
- Luminescence values expressed as RLUs (adenylate cyclase (AC) [2]; forskolin 0.4 μM): 65001 RLUs and 62733 RLUs and 72165 RLUs
- Luminescence values expressed as RLUs (adenylate cyclase (AC) [2]; forskolin 4 μM): 310180 RLUs and 299010 RLUs and 303780 RLUs
- Luminescence values expressed as RLUs (adenylate cyclase (AC) [2]; forskolin 40 μM): 374090 RLUs and 378740 RLUs and 387970 RLUs
- Luminescence values expressed as RLUs (adenylate cyclase (AC) [2]; forskolin 400 μM): 205580 RLUs and 197090 RLUs and 195210 RLUs
